What was measured:
Assay in all cases: relative viability (nuclei count vs DMSO), 5 days (fraction); higher = more cells survive
[1] = compound: CC1=CC(=NN1)NC2=CC(=NC(=N2)/C=C/C3=CC=CC=C3)N4CCN(CC4)C + COc1cc2c(Oc3ccc(NC(=O)C4(C(=O)Nc5ccc(F)cc5)CC4)cc3F)ccnc2cc1OCCCN1CCOCC1 [Foretinib] (partner 0.25 µM)
Procedure, shortened: (§1)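 Relative viability is defined as nuclei in treated wells over nuclei in vehicle wells. Duplicate plates were run and medians reported. Lung cancer cell lines in 1536-well plates were dosed by pin tool one day after seeding, with one drug or with a fixed anchor-drug dose plus five library-drug doses (not always all listed) in √10 steps, and nuclei were counted after 5 days.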

[2] = compound: CC1=CC(=NN1)NC2=CC(=NC(=N2)/C=C/C3=CC=CC=C3)N4CCN(CC4)C + Nc1ncn([C@H]2C[C@H](O)[C@@H](CO)O2)c(=O)n1 [Decitabine] (partner 2 µM)
Procedure, shortened: as §1

Bortezomib + Phenformin = compound: CC(C)C[C@H](NC(=O)[C@H](Cc1ccccc1)NC(=O)c1cnccn1)B(O)O [Bortezomib] + N=C(N)NC(=N)NCCc1ccccc1 [Phenformin] (partner 250 µM)
Procedure, shortened: as §1

Bortezomib + Olaparib = compound: CC(C)C[C@H](NC(=O)[C@H](Cc1ccccc1)NC(=O)c1cnccn1)B(O)O [Bortezomib] + O=C(c1cc(Cc2n[nH]c(=O)c3ccccc23)ccc1F)N1CCN(C(=O)C2CC2)CC1 [Olaparib] (partner 8 µM)
Procedure, shortened: as §1

Cell Line	relative viability ([1]; first compound 0.08 µM)	relative viability ([1]; first compound 0.253 µM)	relative viability ([1]; first compound 0.8 µM)	relative viability ([1]; first compound 2.53 µM)	relative viability ([1]; first compound 8 µM)	relative viability ([2]; first compound 0.08 µM)	relative viability ([2]; first compound 0.253 µM)	relative viability ([2]; first compound 0.8 µM)	relative viability ([2]; first compound 2.53 µM)	relative viability ([2]; first compound 8 µM)	relative viability (Bortezomib + Phenformin; first compound 0.0002 µM)	relative viability (Bortezomib + Phenformin; first compound 0.000632 µM)	relative viability (Bortezomib + Phenformin; first compound 0.002 µM)	relative viability (Bortezomib + Phenformin; first compound 0.006325 µM)	relative viability (Bortezomib + Phenformin; first compound 0.02 µM)	relative viability (Bortezomib + Olaparib; first compound 0.0002 µM)	relative viability (Bortezomib + Olaparib; first compound 0.000632 µM)	relative viability (Bortezomib + Olaparib; first compound 0.002 µM)	relative viability (Bortezomib + Olaparib; first compound 0.006325 µM)	relative viability (Bortezomib + Olaparib; first compound 0.02 µM)
NCI-H2347	0.554	1.44	1.21	0.857	0.325	0.606	0.636	0.561	0.549	0.394	0.493	0.512	0.594	0.298	0.257	0.413	0.572	0.338	0.245	0.249
NCI-H2405	1.05	1.07	1.07	0.878	0.229	0.758	0.618	0.687	0.615	0.171	0.513	0.319	0.393	0.241	0.109	0.859	0.834	0.334	0.199	0.161
NCI-H3122	0.957	0.928	0.965	0.873	0.383	0.372	0.364	0.46	0.379	0.298	0.391	0.368	0.404	0.121	0.105	0.557	0.621	0.604	0.243	0.0898
PC-3 [JPC-3]	1.01	1.1	1.02	0.87	0.493	0.807	0.882	0.806	0.834	0.543	0.495	0.485	0.472	0.24	0.175	1.08	1.14	0.451	0.236	0.216
PC-14	0.974	1.09	0.534	0.869	0.398	0.179	0.2	0.253	0.0601	0.0537	0.434	0.487	0.616	0.183	0.061	0.239	0.282	0.323	0.0333	0.0494
RERF-LC-KJ	0.846	0.93	0.824	0.744	0.586	0.73	0.677	0.695	0.272	0.242	0.377	0.42	0.415	0.337	0.272	0.803	1.02	0.728	0.286	0.199
SK-LU-1	0.756	0.821	0.671	0.177	0.0847	0.594	0.661	0.618	0.396	0.183	0.561	0.499	0.467	0.122	0.0951	0.477	0.442	0.462	0.198	0.149
SK-MES-1	0.896	0.858	0.864	0.653	0.352	0.402	0.379	0.331	0.187	0.11	0.648	0.6	0.608	0.269	0.15	0.649	0.839	0.521	0.171	0.159
SW 900	0.845	0.831	0.871	0.605	0.118	0.426	0.377	0.413	0.277	0.139	0.534	0.548	0.13	0.123	0.0977	0.855	0.63	0.213	0.148	0.173
SW 1573	0.847	0.993	1.1	0.536	0.151	0.51	0.652	0.451	0.111	0.0605	0.384	0.349	0.205	0.0918	0.0612	0.421	0.408	0.319	0.0537	0.0441
UMC-11	1.06	0.908	0.466	0.17	0.13	0.722	0.609	0.562	0.282	0.209	0.371	0.313	0.333	0.292	0.236	0.441	0.398	0.348	0.189	0.133

Source: the supplement of paper PMC10307832
